Source: PubChem BioAssay (NCI)
“And” between values parts separate entries of the source, which are not always exact repeats. Identical values can stand only once.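 Where inhibition never reached the appropriate level, the endpoint shown equals the highest concentration tested. Otherwise, values were interpolated linearly from a five-concentration, 48-hour dose response in 96-well plates. GI50: concentration for 50% inhibition of growth. TGI is the concentration that stops growth completely.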

test system: OVCAR-8 ovarian; assay: NCI tumour cell line growth inhibition, 48 h

Structure (SMILES)	GI50 [µM]	TGI [µM]
Oc1ccc(Nc2ncnc3c2sc2ncccc23)cc1	0.0261	> 30.9
COc1cccc(CC(C)=C(c2ccc(OCCN(C)C)cc2)c2ccc(OCCN(C)C)cc2)c1	2.04	6.71
COC(=O)COc1ccccc1/C=C1\N=C(c2ccccc2)N(c2cc(C(F)(F)F)ccc2Cl)C1=O	37.3	> 100
C=C1C(=O)OC2CC(C)C(C(CC(C)=O)OC(C)=O)=CCC12 (stereo not given)	–	> 51.8
CC(=O)OC1COC(Oc2c(C)c3c4c(c2O)[C@@H](C)CC[C@@H]4[C@@H](C)C[C@H]3C=C(C)C)C(O)C1OC(C)=O (stereo not given in full)	16	32.9
S=C(Nc1ccc(Cl)cc1)Nc1ccc(-c2nc3ccccc3s2)cc1	17.9	41.7
O=c1/c(=C/c2ccccc2[N+](=O)[O-])sc2nnc(-c3ccco3)n12	–	32.5
COC(=O)C[C@](O)(CCCC(C)(C)O)C(=O)O[C@@H]1C(OC)=C[C@]23CCCN2CCc2cc4c(cc2[C@H]13)OCO4	0.0287	–
C[N+](C)(C)CC1CCCc2ccccc2C1=O (stereo not given)	6.14	12.4
COc1cc(C(=O)N2CCN(C=O)C2=S)cc(OC)c1OC	24	65.2
Cn1c(I)c(C#CCO[Si](C)(C)C(C)(C)C)c(=O)[nH]c1=O	22.4	51.7
CCCCC#CC1=C(Br)C(=O)OC1	1.75	10.2
Cc1ccc(SC2c3ccc(C)cc3Oc3nc(N)c(C#N)c(N)c32)cc1 (stereo not given)	1.67	3.06
Cc1cn2c(=O)c3ncn(C4OC(CO)C(O)C4O)c3n(C)c2n1 (stereo not given)	–	> 100
O=C(Nc1ccc(Br)cc1F)c1cc(F)ccc1O	1.3	15
CC/C=C\C[C@H](O)C/C=C1/C(=O)C(Cl)=C[C@@H]1C/C=C\CCCC(=O)OC	0.347	0.864
c1ccc(-c2nnc(-c3ccccn3)s2)nc1	> 100	> 100
CN1CCN(C2CCN(C(=O)Nc3cc(Oc4ccc(NC(=O)C5(C(=O)Nc6ccc(F)cc6)CC5)c(F)c4)ccn3)CC2)CC1	–	> 10
CCN1CCN(C(=O)[C@@]2(C)CC[C@]3(C)CC[C@]4(C)C(=CC(=O)[C@@H]5[C@@]6(C)CC[C@H](OC7C[C@@H](O)[C@@H](O)C(C)O7)C(C)(C)[C@@H]6CC[C@]54C)[C@@H]3C2)CC1 (stereo not given in full)	1.62	6.82
Nc1nn2cc(F)cnc2c1C(=O)Nc1cncc(F)c1N1CCC(C(=O)N2CCN(C3COC3)CC2)CC1	0.548	6.13

test system: M14 melanoma; assay: NCI tumour cell line growth inhibition, 48 h

Structure (SMILES)	GI50 [µM]	TGI
Oc1ccc(Nc2ncnc3c2sc2ncccc23)cc1	0.012	0.0551 µM
COc1cccc(CC(C)=C(c2ccc(OCCN(C)C)cc2)c2ccc(OCCN(C)C)cc2)c1	0.612	1.2 µM
COC(=O)COc1ccccc1/C=C1\N=C(c2ccccc2)N(c2cc(C(F)(F)F)ccc2Cl)C1=O	37.9	> 100 µM
C=C1C(=O)OC2CC(C)C(C(CC(C)=O)OC(C)=O)=CCC12 (stereo not given)	–	36.9 µM
CC(=O)OC1COC(Oc2c(C)c3c4c(c2O)[C@@H](C)CC[C@@H]4[C@@H](C)C[C@H]3C=C(C)C)C(O)C1OC(C)=O (stereo not given in full)	13.7	27.8 µM
S=C(Nc1ccc(Cl)cc1)Nc1ccc(-c2nc3ccccc3s2)cc1	14.3	28 µM
O=c1/c(=C/c2ccccc2[N+](=O)[O-])sc2nnc(-c3ccco3)n12	–	33.3 µM
COC(=O)C[C@](O)(CCCC(C)(C)O)C(=O)O[C@@H]1C(OC)=C[C@]23CCCN2CCc2cc4c(cc2[C@H]13)OCO4	0.0228	–
C[N+](C)(C)CC1CCCc2ccccc2C1=O (stereo not given)	7.85	9.49 µM and 19.7 µM
COc1cc(C(=O)N2CCN(C=O)C2=S)cc(OC)c1OC	20.6	41.6 µM
Cn1c(I)c(C#CCO[Si](C)(C)C(C)(C)C)c(=O)[nH]c1=O	14	28.7 µM
CCCCC#CC1=C(Br)C(=O)OC1	1.26	3.71 µM
Cc1ccc(SC2c3ccc(C)cc3Oc3nc(N)c(C#N)c(N)c32)cc1 (stereo not given)	1.77	3.49 µM
Cc1cn2c(=O)c3ncn(C4OC(CO)C(O)C4O)c3n(C)c2n1 (stereo not given)	–	> 100 µM
O=C(Nc1ccc(Br)cc1F)c1cc(F)ccc1O	0.514	4.07 µM
CC/C=C\C[C@H](O)C/C=C1/C(=O)C(Cl)=C[C@@H]1C/C=C\CCCC(=O)OC	0.611	3.43 µM
c1ccc(-c2nnc(-c3ccccn3)s2)nc1	> 100	> 100 µM
CN1CCN(C2CCN(C(=O)Nc3cc(Oc4ccc(NC(=O)C5(C(=O)Nc6ccc(F)cc6)CC5)c(F)c4)ccn3)CC2)CC1	0.639	1.8 µM
CCN1CCN(C(=O)[C@@]2(C)CC[C@]3(C)CC[C@]4(C)C(=CC(=O)[C@@H]5[C@@]6(C)CC[C@H](OC7C[C@@H](O)[C@@H](O)C(C)O7)C(C)(C)[C@@H]6CC[C@]54C)[C@@H]3C2)CC1 (stereo not given in full)	1.04	2.19 µM
Nc1nn2cc(F)cnc2c1C(=O)Nc1cncc(F)c1N1CCC(C(=O)N2CCN(C3COC3)CC2)CC1	0.154	5.4 µM

test system: SW-620 colon; assay: NCI tumour cell line growth inhibition, 48 h

Structure (SMILES)	GI50 [µM]	TGI
Oc1ccc(Nc2ncnc3c2sc2ncccc23)cc1	0.0824	> 100 µM
COc1cccc(CC(C)=C(c2ccc(OCCN(C)C)cc2)c2ccc(OCCN(C)C)cc2)c1	0.735	1.82 µM
COC(=O)COc1ccccc1/C=C1\N=C(c2ccccc2)N(c2cc(C(F)(F)F)ccc2Cl)C1=O	38.8	> 100 µM
C=C1C(=O)OC2CC(C)C(C(CC(C)=O)OC(C)=O)=CCC12 (stereo not given)	–	10.6 µM
CC(=O)OC1COC(Oc2c(C)c3c4c(c2O)[C@@H](C)CC[C@@H]4[C@@H](C)C[C@H]3C=C(C)C)C(O)C1OC(C)=O (stereo not given in full)	36.4	> 100 µM
S=C(Nc1ccc(Cl)cc1)Nc1ccc(-c2nc3ccccc3s2)cc1	17.9	35.4 µM
O=c1/c(=C/c2ccccc2[N+](=O)[O-])sc2nnc(-c3ccco3)n12	–	46.8 µM
COC(=O)C[C@](O)(CCCC(C)(C)O)C(=O)O[C@@H]1C(OC)=C[C@]23CCCN2CCc2cc4c(cc2[C@H]13)OCO4	0.0293	2.59 µM and 5.05 µM
C[N+](C)(C)CC1CCCc2ccccc2C1=O (stereo not given)	–	3.67 µM and 3.92 µM
COc1cc(C(=O)N2CCN(C=O)C2=S)cc(OC)c1OC	26.8	70 µM
Cn1c(I)c(C#CCO[Si](C)(C)C(C)(C)C)c(=O)[nH]c1=O	1.96	4.14 µM
